# Laboratory results reported in PubChem BioAssay AID330 (DTP/NCI, 2004).
# Several values for one entry are separate records, joined by “and”; a condition that tells them apart may be missing. Identical values can stand only once. Inconclusive results and toxic doses are left out.
# Tested on: P388 leukemia ip, CD2F1 mice, survival T/C
# Assay: NCI In Vivo Anticancer Drug Screen. Data for tumor model P388 Leukemia (intraperitoneal) in CD2F1 (CDF1) mice
# Details: endpoint: median survival time, higher = longer survival
# Summary of the method: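 Mice carrying the transplanted tumor received test compound or vehicle. Survival was recorded in each group, and the value is the treated-group measurement divided by that of the vehicle-treated control group.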
# [1] = dose: 50.0 mg/kg/injection, schedule: Q04DX003 (ip), vehicle: saline with Tween-80
# [2] = dose: 12.5 mg/kg/injection, schedule: Q01DX009 (ip), vehicle: saline with Tween-80
# [3] = dose: 25.0 mg/kg/injection, schedule: Q01DX009 (ip), vehicle: saline with Tween-80
# [4] = dose: 50.0 mg/kg/injection, schedule: Q01DX009 (ip), vehicle: saline with Tween-80
# [5] = dose: 200.0 mg/kg/injection, schedule: Q01DX009 (ip), vehicle: saline with Tween-80
# [6] = dose: 100.0 mg/kg/injection, schedule: Q01DX009 (ip), vehicle: saline with Tween-80
# [7] = dose: 100.0 mg/kg/injection, schedule: Q04DX002 (ip), vehicle: saline with Tween-80
# [8] = dose: 200.0 mg/kg/injection, schedule: Q04DX002 (ip), vehicle: saline with Tween-80
# [9] = dose: 400.0 mg/kg/injection, schedule: Q04DX002 (ip), vehicle: saline with Tween-80
# [10] = dose: 50.0 mg/kg/injection, schedule: Q01DX005 (ip), vehicle: Klucel (hydroxypropylcellulose) (HPC)
# [11] = dose: 200.0 mg/kg/injection, schedule: Q01DX005 (ip), vehicle: Klucel (hydroxypropylcellulose) (HPC)
# [12] = dose: 25.0 mg/kg/injection, schedule: Q01DX009 (ip), vehicle: Klucel (hydroxypropylcellulose) (HPC)
# [13] = dose: 50.0 mg/kg/injection, schedule: Q01DX009 (ip), vehicle: Klucel (hydroxypropylcellulose) (HPC)
# [14] = dose: 50.0 mg/kg/injection, schedule: Q01DX005 (ip), vehicle: saline with Tween-80
# [15] = dose: 100.0 mg/kg/injection, schedule: Q01DX005 (ip), vehicle: saline with Tween-80
# [16] = dose: 200.0 mg/kg/injection, schedule: Q01DX005 (ip), vehicle: saline with Tween-80
# [17] = dose: 60.0 mg/kg/injection, schedule: Q01DX005 (ip), vehicle: saline with Tween-80
# [18] = dose: 120.0 mg/kg/injection, schedule: Q01DX005 (ip), vehicle: saline with Tween-80
# [19] = dose: 240.0 mg/kg/injection, schedule: Q01DX005 (ip), vehicle: saline with Tween-80
smiles,measurement,setting,value
COc1cc(C=Nc2ccc(Cl)cc2)ccc1N(CCCl)CCCl,T/C,"dose: 0.44 mg/kg/injection, schedule: Q01DX009 (ip), vehicle: saline with Tween-80",100 % of control
same,T/C,"dose: 0.66 mg/kg/injection, schedule: Q01DX009 (ip), vehicle: saline with Tween-80",100 % of control
same,T/C,"dose: 1.0 mg/kg/injection, schedule: Q01DX009 (ip), vehicle: saline with Tween-80",109 % of control
same,T/C,"dose: 2.5 mg/kg/injection, schedule: Q01DX009 (ip), vehicle: saline with Tween-80",95 % of control
same,T/C,"dose: 5.0 mg/kg/injection, schedule: Q01DX009 (ip), vehicle: saline with Tween-80",157 % of control
same,T/C,[1],204 % of control
c1ccc(CCN2COc3c(ccc4cccnc34)C2)cc1,T/C,"dose: 25.0 mg/kg/injection, schedule: Q04DX003 (ip), vehicle: saline with Tween-80",110 % of control
same,T/C,[1],110 % of control
same,T/C,"dose: 100.0 mg/kg/injection, schedule: Q04DX003 (ip), vehicle: saline with Tween-80",100 % of control
COc1ccc(OC)c(C=Nc2ccc(S(=O)(=O)Nc3nccc(C)n3)cc2)c1,T/C,[2],90 % of control
same,T/C,[3],90 % of control
same,T/C,[4],87 % of control
same,T/C,[5],100 % of control
C/C(=N/O)[c-]1[c-][c-][c-][c-]1.[Fe].[c-]1[c-][c-][cH-][c-]1,T/C,[3],120 % of control
same,T/C,[4],115 % of control
same,T/C,[6],100 % of control
CCCCOc1ccc(OCc2ccc(C)cc2)cc1,T/C,[4],114 % of control
same,T/C,[6],114 % of control
same,T/C,[5],91 % of control
NCCn1[nH]c(=O)c2cccnc2c1=O,T/C,[7],100 % of control
same,T/C,[8],95 % of control
same,T/C,[9],101 % of control
N#CC(Br)(Br)C(=O)c1nc(N)nc(N)n1,T/C,"dose: 3.12 mg/kg/injection, schedule: Q01DX005 (ip), vehicle: saline with Tween-80",96 % of control
same,T/C,"dose: 6.25 mg/kg/injection, schedule: Q01DX005 (ip), vehicle: saline with Tween-80",100 % of control
same,T/C,"dose: 12.5 mg/kg/injection, schedule: Q01DX005 (ip), vehicle: saline with Tween-80",104 % of control
O=C(O)Cn1ccnc1[N+](=O)[O-],T/C,"dose: 12.5 mg/kg/injection, schedule: Q01DX009 (ip), vehicle: distilled water + Tween-80",100 % of control
same,T/C,"dose: 25.0 mg/kg/injection, schedule: Q01DX009 (ip), vehicle: distilled water + Tween-80",100 % of control
same,T/C,"dose: 50.0 mg/kg/injection, schedule: Q01DX009 (ip), vehicle: distilled water + Tween-80",118 % of control
same,T/C,"dose: 100.0 mg/kg/injection, schedule: Q01DX009 (ip), vehicle: distilled water + Tween-80",90 % of control
same,T/C,"dose: 200.0 mg/kg/injection, schedule: Q01DX009 (ip), vehicle: distilled water + Tween-80",109 % of control
O=C(NC(Cc1cn(Cc2ccccc2)cn1)C(=O)O)OCC1c2ccccc2-c2ccccc21 (stereo not drawn),T/C,[10],104 % of control
same,T/C,"dose: 100.0 mg/kg/injection, schedule: Q01DX005 (ip), vehicle: Klucel (hydroxypropylcellulose) (HPC)",98 % of control
same,T/C,[11],99 % of control
CCOC(=O)Nc1nc2ccc(NC(C)=O)cc2s1,T/C,"dose: 6.25 mg/kg/injection, schedule: Q01DX009 (ip), vehicle: Klucel (hydroxypropylcellulose) (HPC)",104 % of control
same,T/C,"dose: 12.5 mg/kg/injection, schedule: Q01DX009 (ip), vehicle: Klucel (hydroxypropylcellulose) (HPC)",105 % of control
same,T/C,[12],102 % of control
same,T/C,[13],96 % of control
C=C(c1ccc(N(CC)CC)cc1)c1ccc(N(CC)CC)cc1,T/C,[14],95 % of control
same,T/C,[15],103 % of control
same,T/C,[16],90 % of control
C=C(N=[N+]=[N-])c1ccccc1,T/C,"dose: 6.25 mg/kg/injection, schedule: Q01DX009 (ip), vehicle: other",101 % of control
same,T/C,"dose: 12.5 mg/kg/injection, schedule: Q01DX009 (ip), vehicle: other",106 % of control
same,T/C,"dose: 25.0 mg/kg/injection, schedule: Q01DX009 (ip), vehicle: other",112 % of control
same,T/C,"dose: 50.0 mg/kg/injection, schedule: Q01DX009 (ip), vehicle: other",117 % of control
same,T/C,"dose: 100.0 mg/kg/injection, schedule: Q01DX009 (ip), vehicle: other",107 % of control
C[Si](C)(C)O/C=C1/CCOC1=O,T/C,"dose: 50.0 mg/kg/injection, schedule: Q01DX009 (ip), vehicle: saline",100 % of control and 87 % of control
same,T/C,"dose: 100.0 mg/kg/injection, schedule: Q01DX009 (ip), vehicle: saline",98 % of control and 104 % of control
same,T/C,"dose: 200.0 mg/kg/injection, schedule: Q01DX009 (ip), vehicle: saline",120 % of control
same,T/C,"dose: 300.0 mg/kg/injection, schedule: Q01DX009 (ip), vehicle: saline",114 % of control
N#Cc1cnc(N)c(C#N)c1,T/C,[12],104 % of control
same,T/C,[13],104 % of control
FC12CCC(c3ccccc3)(CC1)CC2,T/C,"dose: 100.0 mg/kg/injection, schedule: Q04DX003 (ip), vehicle: Klucel (hydroxypropylcellulose) (HPC)",98 % of control
same,T/C,"dose: 200.0 mg/kg/injection, schedule: Q04DX003 (ip), vehicle: Klucel (hydroxypropylcellulose) (HPC)",100 % of control
same,T/C,"dose: 400.0 mg/kg/injection, schedule: Q04DX003 (ip), vehicle: Klucel (hydroxypropylcellulose) (HPC)",103 % of control
CC(Oc1cc(Cl)c(Cl)cc1Cl)C(=O)NC(C(=O)O)C(C)C (stereo not drawn),T/C,[14],97 % of control and 100 % of control
same,T/C,[15],91 % of control and 106 % of control
same,T/C,[16],97 % of control and 111 % of control
CN1C(=O)C(C)(C)CN(c2ccccc2)C1=S,T/C,[14],100 % of control
same,T/C,[15],108 % of control
same,T/C,[16],103 % of control
CC(C)(C)N=C(CCC(C#N)(C#N)CCC(=NC(C)(C)C)Nc1ccccc1C#N)Nc1ccccc1C#N,T/C,[4],95 % of control
same,T/C,[6],92 % of control
same,T/C,[5],101 % of control
CC1OC2CC(=O)OC2C2=C1C(=O)c1cc(-c3cc(O)c4c(c3)C(=O)C3=C(C4=O)C4OC(=O)CC4OC3C)cc(O)c1C2=O (stereo not drawn),T/C,"dose: 0.95 mg/kg/injection, schedule: Q01DX005 (ip), vehicle: DMSO",98 % of control
same,T/C,"dose: 1.9 mg/kg/injection, schedule: Q01DX005 (ip), vehicle: DMSO",107 % of control
same,T/C,"dose: 3.8 mg/kg/injection, schedule: Q01DX005 (ip), vehicle: DMSO",99 % of control
CC(C)(C)c1ccc(C(C)(C)C)c(N2C(=O)c3ccc4c5ccc6c7c(ccc(c8ccc(c3c48)C2=O)c75)C(=O)N(c2cc(C(C)(C)C)ccc2C(C)(C)C)C6=O)c1,T/C,[17],95 % of control
same,T/C,[18],90 % of control
same,T/C,[19],99 % of control
S=C(SCc1nc(-c2ccc(Cl)cc2)no1)N1CCSCC1,T/C,[17],97 % of control
same,T/C,[18],92 % of control
same,T/C,[19],105 % of control
O=C(O)CSc1nc(-c2nc3ccccc3s2)cn1-c1ccc(F)cc1,T/C,[13],106 % of control
same,T/C,"dose: 100.0 mg/kg/injection, schedule: Q01DX009 (ip), vehicle: Klucel (hydroxypropylcellulose) (HPC)",106 % of control
same,T/C,"dose: 200.0 mg/kg/injection, schedule: Q01DX009 (ip), vehicle: Klucel (hydroxypropylcellulose) (HPC)",100 % of control
C=CCC(N)C(=O)O (stereo not drawn),T/C,"dose: 50.0 mg/kg/injection, schedule: Q01DX005 (ip), vehicle: saline",103 % of control
same,T/C,"dose: 100.0 mg/kg/injection, schedule: Q01DX005 (ip), vehicle: saline",97 % of control
Nc1c(Br)cc(Br)c2[nH]c(=O)c3ccccc3c12,T/C,[17],116 % of control
same,T/C,[18],106 % of control
CCCCCCC[n+]1cccc(S(=O)(=O)N2CCOCC2)c1,T/C,[2],98 % of control
same,T/C,[3],98 % of control
same,T/C,[4],98 % of control
CCN(CC)CCC(O)(c1ccc2c(c1)OCO2)c1cc(OC)c(OC)c(OC)c1 (stereo not drawn),T/C,[10],103 % of control and 93 % of control and 94 % of control
same,T/C,[11],101 % of control
CC1=NN(C2=NS(=O)(=O)c3ccccc3N2c2ccccc2)C(=O)C1,T/C,[7],108 % of control
same,T/C,[8],106 % of control
same,T/C,[9],97 % of control
COc1ccc(CN2CCCN(Cc3ccc(OC)cc3)C2c2cc3ccccc3c3ccccc23)cc1,T/C,[14],99 % of control
same,T/C,[15],99 % of control
same,T/C,[16],101 % of control
